In BigSolDB 2.1:

O=[N+]([O-])c1ccc(O)c2ncccc12
solubility (mole fraction)
Conditions	in acetic acid	in acetone	in acetonitrile	in ethanol	in ethyl acetate	in isopropanol	in methanol	in n-butanol	in n-propanol	in toluene
278.15 K	0.00224	0.00398	0.00113	0.000575	0.00339	0.0005	0.000443	0.000606	0.000562	0.00229
280.65 K	0.00239	0.00429	0.00124	0.000625	0.00369	0.000548	0.000486	0.000663	0.000608	0.00247
283.15 K	0.00259	0.00461	0.00137	0.000682	0.004	0.000605	0.000531	0.000726	0.000675	0.00269
285.65 K	0.0028	0.00498	0.00151	0.00075	0.00437	0.000672	0.000586	0.000797	0.000748	0.00293
288.15 K	0.00303	0.00538	0.00165	0.00082	0.00476	0.000741	0.000643	0.000867	0.000814	0.00317
290.65 K	0.00328	0.0058	0.0018	0.000901	0.00517	0.000816	0.000701	0.000961	0.000899	0.00345
293.15 K	0.00355	0.00624	0.00197	0.000988	0.00564	0.000897	0.000763	0.00105	0.00099	0.00377
295.65 K	0.00383	0.00668	0.00214	0.00108	0.0061	0.000974	0.00083	0.00116	0.00109	0.00408
298.15 K	0.00416	0.00721	0.00233	0.00118	0.00667	0.00107	0.000904	0.00128	0.00119	0.00444
300.65 K	0.00449	0.00773	0.00256	0.00128	0.00724	0.00118	0.000981	0.00139	0.00131	0.00481
303.15 K	0.00484	0.00831	0.00279	0.00139	0.00786	0.00129	0.00107	0.00153	0.00143	0.00518
305.65 K	0.0052	0.00888	0.00304	0.00152	0.00857	0.00141	0.00116	0.00166	0.00157	0.00562
308.15 K	0.00559	0.00956	0.00334	0.00166	0.00929	0.00154	0.00127	0.0018	0.0017	0.00609
310.65 K	0.00601	0.0103	0.00366	0.00182	0.01	0.00168	0.00138	0.00197	0.00186	0.0066
313.15 K	0.00649	0.0111	0.00403	0.00199	0.0109	0.00183	0.00149	0.00217	0.00204	0.00715
